Data taken from patent US11827917B1, “Methods for the conversion of fermentable sugars to ethanol” (Colorado State University Research Foundation, priority 2020, dated 2023).
Values joined by “and” are separate entries in the source; they are usually repeats but may differ in a detail not shown here. Equal values may be shown once.

Experiments:
yeast = assay: Yeast growth and ethanol yield in serum bottles, low/high cell inoculum (Tables 5, 6); type: cell-based
S. cerevisiae JAY270 = assay: Immobilized yeast cells, batch cultivation on D. armatus hydrolysate; type: cell-based, Saccharomyces cerevisiae; settings: 0.2%; for EtOH yield / EtOH yield % Δ from control: 24 hours
Protocol: S. cerevisae JAY270 cells were precultured in 600 mL YPD medium at 30° C. overnight and collected by centrifuging at 3000×g for 10 min at 4° C. The cell pellets were washed twice by resuspending in 0.8% NaCl and centrifuged to remove any medium residue. Then, the cells were resuspended in 50 mL 0.8% NaCl and mixed with the 4% sodium alginate solution to obtain the final sodium alginate concentration of 3%. The mixture was dropped with a syringe aseptically into sterilized 2% CaCl2·2H2O on ice to form spheres (“beads”). The cell-immobilized beads were kept in the CaCl2) solution at 4° C. until use.
The immobilized cells were incubated in YPD medium with 20 g/L glucose overnight at 30° C. to activate the immobilized cells. For each replicate test, 25 mL of D. armatus hydrolysate obtained from NREL was mixed with 15 mL beads and transferred into a 50 mL serum bottle. All serum bottles were incubated in a shaker at 150 rpm and 30° C. Samples were collected at 0, 12, and 24 h. The concentrations of sugars and ethanol in the samples were analyzed by HPLC.
To test the effects of yield-increasing chemicals on the immobilized cells fermentation, 0.2% PheOH or TrpOH was added in the D. armatus hydrolysate obtained from NREL in serum bottles respectively (batch growth). PheOH was directly added into the hydrolysate medium. TrpOH was dissolved in DMSO at 20%, then added into the hydrolysate to achieve the desired final concentration. The same amount of DMSO was added into the control cultivations. S. cerevisae JAY270 cells were immobilized in calcium alginate. The immobilized cell beads were incubated in YPD medium overnight at 30° C. to activate the immobilized cells. Twenty-five mL of D. armatus hydrolysate was mixed with 15 mL immobilized cell beads (three biological replicates in each treatment) and incubated at 30° C. The ethanol yield was calculated at 24 hours. The content of glucose and ethanol in samples was analyzed using HPLC.

S. cerevisiae JAY 270 = assay: 1-L batch bioreactor fermentation, time course; type: cell-based, Saccharomyces cerevisiae; settings: for Biomass Yield / Biomass yield % change vs. control / EtOH yield / EtOH yield % change vs. control / Glycerol yield / Glycerol yield % change vs. control: 1-L bioreactor, 24 hours; for Biomass yield, lower in comparison to control: addition in the fermentation medium
Protocol: Yeast strain: S. cerevisiae JAY 270, as in Example 1. Inocula for bioreactor experiments with PheOH and TrpOH S. cerevisiae JAY 270 were prepared by culturing the yeast in 100 mL of YPD medium in 200-mL serum bottles overnight in a shaker at 30° C. and 200 rpm. The cells were collected by centrifuging 10 min at 4000×g and 4° C. The cell pellet was washed twice using sterile 0.8% (w/v) NaCl solution. Finally, the cell pellet was resuspended in about 15 mL of 0.8% (w/v) NaCl.
Procedure: Fermentations were carried out in two Eppendorf BioFlo 115 bioreactors containing 1 L sterile YNB medium with 20 g/L glucose (Difco Yeast Nitrogen Base, catalog number 239210). The prepared yeast cells were inoculated in the bioreactor vessels to obtain an initial yeast cell concentration of OD600≈0.1. The fermentation was conducted at pH 5.5, 30° C., and 200 rpm agitation. Ultrapure N2 was sparged at 0.1 standard liters per minute in the bioreactor vessels to maintain anaerobic conditions. Samples were collected at different time points to monitor cell, glucose, and ethanol concentrations.
For experiments with added PheOH, 2.0 mL of PheOH stock solution was added to one of the two vessels when the OD600 reached 1.0 to achieve a final concentration of 0.2% (w/v). In the serum bottle tests, TrpOH had stronger effects on yeast cell growth than PheOH at the same tested concentration. A study in serum bottles was then conducted to determine the TrpOH concentration that would have a similar growth inhibitory effect. […] Thus, for bioreactor experiments on the effects of TrpOH, the TrpOH was added at 0.12%. Since TrpOH was dissolved in DMSO, the same concentration of DMSO was added in the control bioreactor at the same time. All other bioreactor conditions were the same as in the PheOH test.
Samples were collected from the bioreactors every hour post-addition for 6 h, and again after 24 hours of cultivation. Each experiment was repeated in triplicate.

[1] = 0.05%, high cell inoculum (OD600 at 0 h 1.96), 26 h test
[2] = 0.05%, low cell inoculum (OD600 at 0 h 0.70), 26 h test
[3] = 0.1%, high cell inoculum (OD600 at 0 h 1.96), 26 h test
[4] = 0.1%, low cell inoculum (OD600 at 0 h 0.70), 26 h test
[5] = 0.2%, high cell inoculum (OD600 at 0 h 1.96), 26 h test
[6] = 0.2%, low cell inoculum (OD600 at 0 h 0.70), 26 h test
[7] = 0.05%, high cell inoculum (OD600 at 0 h 0.85), 48 h test
[8] = 0.05%, low cell inoculum (OD600 at 0 h 0.30), 48 h test
[9] = 0.1%, high cell inoculum (OD600 at 0 h 0.85), 48 h test
[10] = 0.1%, low cell inoculum (OD600 at 0 h 0.30), 48 h test
[11] = 0.2%, high cell inoculum (OD600 at 0 h 0.85), 48 h test
[12] = 0.2%, low cell inoculum (OD600 at 0 h 0.30), 48 h test

## OCCc1ccccc1 [PheOH, 2-phenylethanol]
yeast; 0.05%, high cell inoculum (OD600 at 0 h 1.96)
  OD600 at 26 h: 4.24
yeast; [1]
  EtOH yield: 0.47 g/g
  EtOH yield % Δ from control: 3.1%
yeast; 0.05%, low cell inoculum (OD600 at 0 h 0.70)
  OD600 at 26 h: 3.28
yeast; [2]
  EtOH yield: 0.47 g/g
  EtOH yield % Δ from control: −1.9%
yeast; 0.1%, high cell inoculum (OD600 at 0 h 1.96)
  OD600 at 26 h: 3.99
yeast; [3]
  EtOH yield: 0.47 g/g
  EtOH yield % Δ from control: 1.7%
yeast; 0.1%, low cell inoculum (OD600 at 0 h 0.70)
  OD600 at 26 h: 2.83
yeast; [4]
  EtOH yield: 0.45 g/g
  EtOH yield % Δ from control: −4.6%
yeast; 0.2%, high cell inoculum (OD600 at 0 h 1.96)
  OD600 at 26 h: 3.53
yeast; [5]
  EtOH yield: 0.48 g/g
  EtOH yield % Δ from control: 4.9%
yeast; 0.2%, low cell inoculum (OD600 at 0 h 0.70)
  OD600 at 26 h: 2.41
yeast; [6]
  EtOH yield: 0.47 g/g
  EtOH yield % Δ from control: −1.1%
S. cerevisiae JAY270; D. armatus hydrolysate, batch
  EtOH yield: 0.46 g/g
  EtOH yield % Δ from control: 1.54%
S. cerevisiae JAY 270; PheOH 0.2%
  Glycerol concentration, decrease: 21%
S. cerevisiae JAY 270; PheOH 0.2% (w/v)
  Biomass Yield: 0.063 ± 0.008 g/g
  Biomass yield % change vs. control: −23 ± 5 %
  EtOH yield: 0.435 ± 0.003 g/g
  EtOH yield % change vs. control: 5.3 ± 0.8 %
  Glycerol yield: 0.071 ± 0.001 g/g
  Glycerol yield % change vs. control: −20 ± 2 %
S. cerevisiae JAY 270; PheOH 0.2% (w/v), listed as 2-phenylethanol
  EtOH yield % change vs. control: 6%
S. cerevisiae JAY 270; PheOH 0.2%, 24 h
  Final cell concentration, lower than control: 22%
S. cerevisiae JAY 270; PheOH 0.2%, after 12 h (control completely consumed)
  Glucose remaining: about 2 g/L
S. cerevisiae JAY 270
  Biomass yield, lower in comparison to control: about 20%

## OCCc1c[nH]c2ccccc12 [TrpOH, tryptophol]
yeast; 0.05%, high cell inoculum (OD600 at 0 h 0.85)
  OD600 at 48 h: 2.47
yeast; [7]
  EtOH yield: 0.52 g/g
  EtOH yield % Δ from control: 4.6%
yeast; 0.05%, low cell inoculum (OD600 at 0 h 0.30)
  OD600 at 48 h: 1.17
yeast; [8]
  EtOH yield: 0.50 g/g
  EtOH yield % Δ from control: 5.7%
yeast; 0.1%, high cell inoculum (OD600 at 0 h 0.85)
  OD600 at 48 h: 1.87
yeast; [9]
  EtOH yield: 0.54 g/g
  EtOH yield % Δ from control: 7.6%
yeast; 0.1%, low cell inoculum (OD600 at 0 h 0.30)
  OD600 at 48 h: 0.79
yeast; [10]
  EtOH yield: 0.50 g/g
  EtOH yield % Δ from control: 2.2%
yeast; 0.2%, high cell inoculum (OD600 at 0 h 0.85)
  OD600 at 48 h: 1.40
yeast; [11]
  EtOH yield: 0.51 g/g
  EtOH yield % Δ from control: 1.9%
yeast; 0.2%, low cell inoculum (OD600 at 0 h 0.30)
  OD600 at 48 h: 0.51
yeast; [12]
  EtOH yield: 0.52 g/g
  EtOH yield % Δ from control: 5.9%
S. cerevisiae JAY270
  Ethanol yield higher than the value for free cell fermentation of D. armatus hydrolysate: about 20%
S. cerevisiae JAY270; D. armatus hydrolysate, batch
  Ethanol yield: 0.49 g ethanol/g sugar
  EtOH yield: 0.49 g/g
  EtOH yield % Δ from control: 11.4% and 11.42%
S. cerevisiae JAY 270; TrpOH 0.12% (w/v)
  Biomass Yield: 0.063 ± 0.008 g/g
  Biomass yield % change vs. control: −28 ± 5 %
  EtOH yield: 0.420 ± 0.012 g/g
  EtOH yield % change vs. control: 6.5 ± 3.1 %
  Glycerol yield: 0.070 ± 0.004 g/g
  Glycerol yield % change vs. control: −17 ± 2 %
S. cerevisiae JAY 270; TrpOH 0.12% (w/v), listed as tryptophol
  EtOH yield % change vs. control: 10%
S. cerevisiae JAY 270; TrpOH 0.12%, 24 h
  Final cell concentration, lower than control: about 22%
  Glycerol concentration, lower than control: 17%
S. cerevisiae JAY 270; TrpOH 0.12%, 24 h, listed as tryptophol
  Final cell concentration, lower than control: 22%
S. cerevisiae JAY 270
  Biomass yield, lower in comparison to control: about 20%
